In patent US12643867B2, “Compositions and uses thereof” (University of Virginia Patent Foundation, priority 2017, dated 2026):

How the values were obtained:
[1] = biological target: T1, DGKE (Diacylglycerol kinase epsilon) (Homo sapiens, UniProt P52429); test: SILAC LC-MS ATP acyl phosphate probe competition, recombinant DGK-HEK293T lysates; format: binding; settings: site DAGKa (K392); membrane fraction; ATP 1 mM; Ketanserin, Ritanserin 100 μM; RF001 1 mM
T1 construct: expressed in transfected cells; host or cells: SILAC HEK293T, membrane fraction
T1 sequence (P52429 1-567): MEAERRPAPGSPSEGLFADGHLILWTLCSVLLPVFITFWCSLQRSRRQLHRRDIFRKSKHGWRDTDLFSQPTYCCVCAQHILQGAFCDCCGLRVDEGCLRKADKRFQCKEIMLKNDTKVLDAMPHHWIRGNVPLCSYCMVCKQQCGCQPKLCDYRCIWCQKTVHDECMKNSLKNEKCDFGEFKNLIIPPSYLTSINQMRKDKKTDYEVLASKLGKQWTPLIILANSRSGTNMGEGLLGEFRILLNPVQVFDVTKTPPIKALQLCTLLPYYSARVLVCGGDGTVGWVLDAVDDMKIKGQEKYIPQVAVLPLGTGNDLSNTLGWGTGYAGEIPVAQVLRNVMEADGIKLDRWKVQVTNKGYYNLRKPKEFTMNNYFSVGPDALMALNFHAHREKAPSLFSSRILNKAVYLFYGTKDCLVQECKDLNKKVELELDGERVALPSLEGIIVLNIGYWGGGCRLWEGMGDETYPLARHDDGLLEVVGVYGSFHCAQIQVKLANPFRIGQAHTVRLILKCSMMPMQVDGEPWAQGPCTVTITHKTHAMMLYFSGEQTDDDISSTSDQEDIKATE
Excerpt: Recombinant DGK proteins were produced by transient transfection of HEK293T cells with recombinant DNA. pDONR223-DGKK was a gift from William Hahn & David Root (Addgene plasmid #23487). pCSF107mT-GATEWAY-3′-FLAG was a gift from Todd Stukenberg (Addgene plasmid #67619). pCSF107mT-DGKK-FLAG construct was generated by recombination of the Addgene plasmids using the Gateway cloning system (Invitrogen). All other vectors were gifted to Dr. Kevin Lynch (University of Virginia, School of Medicine) by Dr. Kaoru Goto (Yamagata University, School of Medicine) and Dr. Fumio Sakane (Chiba University) and were kindly shared with us: pcDNA3-FLAG-DGKA (rat), pCMV-Tag2B-FLAG-DGKQ (human), pcDNA3-DGKE-3×Flag (human), and pCMV-SPORT6-HA-DGKZ (human). HEK293T cells were plated at a concentration of 400,000 cells in complete DMEM and grown to 50-60% confluency. A polyethyleneimine (PEI) stock solution was prepared (1 mg/mL, pH 7.4) and filter sterilized. Serum-free DMEM (600 μL) was mixed gently with 2.6 μg DNA and 20 μL of sterile PEI (1 mg/mL, pH 7.4) in a sterile microfuge tube. Mixtures were incubated for 30 min at 25° C. The mixture was then added drop-wise to each 10 cm^2 plate, rocked back and forth to mix, and placed back in the incubator. Cell pellets were harvested after two full days of growth, snap-frozen in liquid N2, and stored at −80° C. until use. Recombinant proteins were produced by transient transfection in SILAC HEK293T cells using the procedure described above, except that cells were plated at a concentration of 1×10^6 cells per 10 cm^2 plate and grown to ˜70% confluency prior to introducing transfection mixture.
Cell pellets were resuspended in kinase buffer (Dulbecco's PBS (DPBS, Hyclone), 20 mM MgCl2, EDTA-free protease inhibitors (Pierce)) and then lysed by sonication (3×1 sec pulse, 20% amplitude). The cell lysates were then subjected to centrifugation (100,000×g, 45 min at 4° C.) to isolate the cytosolic fraction in the supernatant and the membrane fraction as a pellet. […] Protein concentrations were measured using the Bio-Rad DC protein assay. […]

A549 cells = test: Cell Counts (Trypan Blue); format: cell-based; settings: 48 hrs; ritanserin 10 μM
Method: (§1) Cell Counts. Tumor cells were plated in 60 mm plates at a density of 100.000 cells/mL (A549. H1650) or 200,000 cells/mL (H82) and a volume of 3.5 mL/plate. Cells were treated with inhibitors at the indicated concentrations (final DMSO concentration of 0.5%) for 48 hrs at 37° C. under 5% CO2. After incubation, adherent cells were washed and detached with trypsin and all cells were collected and concentrated by spinning at 400×g for 3 min followed by aspiration of media. Cells were resuspended in […] Trypan Blue and 10 μL of this solution counted via a hemocytometer. Dead cells were excluded from all counts. Data were normalized to DMSO-treated wells and significance values determined with one-way ANOVA.

H1650 cells = test: Cell Counts (Trypan Blue); format: cell-based; settings: 48 hrs; ritanserin 10 μM
Method: as §1

H82 cells = test: Cell Counts (Trypan Blue); format: cell-based; settings: 48 hrs; ritanserin 10 μM
Method: as §1

recombinant RAF1 = biological target: T2, recombinant RAF1 (Homo sapiens, UniProt P04049); test: RAF1 (CRAF) substrate assay; format: biochemical; settings: RAF1-HEK293T proteomes
T2 construct: expressed in transfected cells; host or cells: HEK293T
T2 sequence (P04049 whole entry): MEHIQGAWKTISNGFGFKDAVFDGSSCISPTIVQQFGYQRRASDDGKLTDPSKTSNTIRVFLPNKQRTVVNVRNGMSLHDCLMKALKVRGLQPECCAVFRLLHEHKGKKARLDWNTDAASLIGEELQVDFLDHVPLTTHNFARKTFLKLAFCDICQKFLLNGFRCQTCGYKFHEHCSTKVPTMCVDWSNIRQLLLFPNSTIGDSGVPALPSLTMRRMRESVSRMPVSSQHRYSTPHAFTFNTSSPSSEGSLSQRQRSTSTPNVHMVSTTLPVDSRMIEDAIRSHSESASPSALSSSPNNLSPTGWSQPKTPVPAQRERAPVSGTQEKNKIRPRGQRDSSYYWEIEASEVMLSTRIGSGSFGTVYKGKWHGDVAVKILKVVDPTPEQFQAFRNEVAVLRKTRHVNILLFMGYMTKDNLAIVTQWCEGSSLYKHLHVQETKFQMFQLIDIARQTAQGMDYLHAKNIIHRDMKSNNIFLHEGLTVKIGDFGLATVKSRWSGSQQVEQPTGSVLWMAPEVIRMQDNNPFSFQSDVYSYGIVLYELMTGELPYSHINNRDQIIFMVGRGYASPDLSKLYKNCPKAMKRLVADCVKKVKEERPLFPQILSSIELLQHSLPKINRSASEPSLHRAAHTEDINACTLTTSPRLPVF
Method: Given the potential for indirect inhibitory effects in the competition studies in lysates, ritanserin activity was tested in a CRAF substrate assay. Ritanserin inhibition was measured against recombinant RAF1 using commercial substrate assays. […] RAF1 was overexpressed in HEK293T cells and measured recombinant RAF1 activity by comparing with non-transfected HEK293T (i.e. mock) proteomes.

Compound: O=C(c1ccc(F)cc1)C1CCN(CCn2c(=O)[nH]c3ccccc3c2=O)CC1 [Ketanserin]
- SILAC ratio, DGKE DAGKa probe-modified peptide [1]: 1.3
- cell killing (live cell counts) (A549 cells): not ketanserin
- cell killing (live cell counts) (H1650 cells): not ketanserin
- cell killing (live cell counts) (H82 cells): not ketanserin
- blockade of recombinant RAF1 activity (recombinant RAF1): not ketanserin

Compound: Fc1ccc(C(=C2CCNCC2)c2ccc(F)cc2)cc1 [RF001, 4-(Bis(4-fluorophenyl)methylene) piperidine]
- SILAC ratio, DGKE DAGKa probe-modified peptide [1]: 0.7

Compound: Cc1nc2sccn2c(=O)c1CCN1CCC(=C(c2ccc(F)cc2)c2ccc(F)cc2)CC1 [Ritanserin]
- SILAC ratio, DGKE DAGKa probe-modified peptide [1]: 1.0
- cell killing (live cell counts) (A549 cells): ~70%
- cell killing (live cell counts) (H1650 cells): ~70%
- cell killing (live cell counts) (H82 cells): ~70%
- blockade of recombinant RAF1 activity (recombinant RAF1): concentrations dependent blockade of recombinant RAF1 activity
